Consider eight compounds from ChEMBL document CHEMBL1201862, “PubChem BioAssay data set” (2004).

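Five compound concentrations were applied to cells in 96-well plates for 48 hours; endpoints were derived by simple linear interpolation of the resulting dose-response curve. Here, GI50 denotes the concentration required for 50% inhibition of growth.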 Calls of active or inactive are those of the source. Cut-off read from the data, not from the text of the source: active = GI50 up to about 1.1 µM and inactive = higher.

Test systems include SF-268; OVCAR-8; SR; LOX IMVI; OVCAR-4; IGROV-1; OVCAR-5; HOP-62; OVCAR-3; UACC-257; M14; A498; SF-295; HCT-15; ACHN; UO-31; HT-29; SF-539; SN12C.
What all share (test): NCI tumour cell line growth inhibition, 48 h

In the case of `CC(=O)OCC1OC(n2c(N)c(C#N)c(-c3ccccc3)c(C#N)c2=S)C(OC(C)=O)C(OC(C)=O)C1OC(C)=O` (configuration not stated), the GI50 with SF-268 is 7.8 µM (inactive); in the experiment with OVCAR-8 it was 34.9 µM (inactive); with SR it was > 100 µM (inactive); in the experiment with LOX IMVI, > 100 µM (inactive); with OVCAR-4 it was > 49.8 µM (inactive); in the experiment with IGROV-1 it was > 100 µM (inactive). For the same compound, the GI50 was > 100 µM (inactive) with OVCAR-5; 11.6 µM (inactive) in the experiment with HOP-62; > 100 µM (inactive) in the experiment with OVCAR-3; > 100 µM (inactive) in the experiment with UACC-257; > 100 µM (inactive) in the experiment with M14; > 64.4 µM (inactive) with A498. Also, the GI50 in the experiment with SF-295 is 30.8 µM (inactive); in the experiment on HCT-15, greater than 100 µM; in the experiment on ACHN, > 85.7 µM (inactive); in the experiment with UO-31, 45 µM (inactive); in the experiment on HT-29, > 100 µM (inactive); with SF-539, > 46.9 µM (inactive). Further, the GI50 with SN12C was > 100 µM (inactive).

Consider `CC(C)(C)CC(C)(C)N/C(N)=N/O`, for which the GI50 in the experiment with SF-268 is > 89.3 µM (inactive); in the experiment with OVCAR-8 it was > 80 µM (inactive); in the experiment with SR, > 81.5 µM (inactive); in the experiment on LOX IMVI it was > 100 µM (inactive); in the experiment on OVCAR-4, > 37.4 µM (inactive); with IGROV-1 it was > 86.7 µM (inactive). The GI50 in the experiment on OVCAR-5 was > 100 µM (inactive); with HOP-62, > 100 µM (inactive); with OVCAR-3, 22.2 µM (inactive); in the experiment with UACC-257, 41.4 µM (inactive); in the experiment on M14, > 100 µM (inactive); in the experiment with A498, > 22.6 µM (inactive). In addition, the GI50 is > 100 µM (inactive) in the experiment on SF-295; 56.1 µM with HCT-15; 6.71 µM (inactive) with ACHN; > 21.7 µM (inactive) in the experiment on UO-31; > 100 µM (inactive) in the experiment with HT-29; > 60.8 µM (inactive) in the experiment on SF-539. For the same compound, the GI50 in the experiment with SN12C is > 100 µM (inactive).

As to `CC(C)(C)OC(=O)NC1CCCCC1NC(=O)C(=O)NC1CCCCC1NC(=O)OC(C)(C)C` (configuration not stated), the GI50 with SF-268 is 37.2 µM (inactive); with OVCAR-8, > 100 µM (inactive); with SR it was > 100 µM (inactive); with LOX IMVI it was > 100 µM (inactive); in the experiment with OVCAR-4, > 100 µM (inactive); in the experiment on IGROV-1, > 100 µM (inactive). The GI50 in the experiment with OVCAR-5 was > 100 µM (inactive); in the experiment with HOP-62 it was 19.3 µM (inactive); with OVCAR-3 it was > 100 µM (inactive); with UACC-257, > 100 µM (inactive); in the experiment on M14, > 100 µM (inactive); with A498, 32.7 µM (inactive). Moreover, the GI50 in the experiment with SF-295 was 29.1 µM (inactive); in the experiment on HCT-15, greater than 100 µM; in the experiment on ACHN, 39.1 µM (inactive); in the experiment on UO-31, > 100 µM (inactive); with HT-29, > 100 µM (inactive); in the experiment with SF-539, 45.4 µM (inactive). The GI50 with SN12C was > 100 µM (inactive).

For `CCOC(=O)NN(C(=O)OCC)C(C(=O)c1ccccc1)N(NC(=O)OCC)C(=O)OCC`, the GI50 in the experiment on SF-268, with OVCAR-8, in the experiment on SR, with LOX IMVI, in the experiment on OVCAR-4 and in the experiment on IGROV-1 was > 100 µM (inactive) in each case. Further, the GI50 with OVCAR-5, with HOP-62, in the experiment with OVCAR-3, with UACC-257, in the experiment with M14 and with A498 was > 100 µM (inactive) each time. The GI50 in the experiment with SF-295 is > 100 µM (inactive); in the experiment with HCT-15, greater than 100 µM; with ACHN, > 100 µM (inactive); in the experiment with UO-31 it was > 100 µM (inactive); in the experiment with HT-29 it was > 100 µM (inactive); with SF-539, > 100 µM (inactive). Moreover, the GI50 in the experiment on SN12C was > 100 µM (inactive).

Regarding `O=C1C=CC(=O)C1(Br)Br`, the GI50 in the experiment with SF-268 was 18.5 µM (inactive); in the experiment on OVCAR-8, 8.3 µM (inactive); in the experiment with SR it was 3.42 µM (inactive); in the experiment with LOX IMVI, 12.1 µM (inactive); with OVCAR-4 it was 17.6 µM (inactive); in the experiment with IGROV-1, 5.01 µM (inactive). The GI50 was 10.7 µM (inactive) in the experiment on OVCAR-5; 17.6 µM (inactive) with HOP-62; 12.9 µM (inactive) in the experiment with OVCAR-3; 16.1 µM (inactive) in the experiment with UACC-257; 18.1 µM (inactive) with M14; 13.2 µM (inactive) in the experiment with A498. Also, the GI50 is 17.2 µM (inactive) in the experiment on SF-295; 6.53 µM in the experiment with HCT-15; 6.75 µM (inactive) in the experiment on ACHN; 6.27 µM (inactive) with UO-31; 7.38 µM (inactive) in the experiment with HT-29; 16.4 µM (inactive) in the experiment with SF-539. Moreover, the GI50 in the experiment with SN12C was 7.96 µM (inactive).

As to `O=C1Nc2ccccc2/C1=N/Nc1nc(-c2cccc([N+](=O)[O-])c2)cs1`, the GI50 in the experiment on SF-268 is 19.7 µM (inactive); in the experiment with OVCAR-8, 15.9 µM (inactive); in the experiment with SR, 53 µM (inactive); in the experiment on LOX IMVI it was 20.7 µM (inactive); with OVCAR-4, 21 µM (inactive); in the experiment with IGROV-1, 21.6 µM (inactive). Besides, the GI50 in the experiment on OVCAR-5 was > 100 µM (inactive); in the experiment on HOP-62 it was 24.1 µM (inactive); in the experiment on OVCAR-3, 34.8 µM (inactive); in the experiment with UACC-257 it was 19.3 µM (inactive); with M14, 34.1 µM (inactive); in the experiment with A498, 21.8 µM (inactive). The GI50 is 20.7 µM (inactive) with SF-295; 21.8 µM in the experiment with HCT-15; 31.4 µM (inactive) in the experiment with ACHN; 55.3 µM (inactive) in the experiment with UO-31; 17.7 µM (inactive) with HT-29; 24 µM (inactive) with SF-539. Besides, the GI50 in the experiment with SN12C is 20.8 µM (inactive).

On to `O=[N+]([O-])c1ccc2c(c1)c(S(=O)(=O)O)cc1nonc12`, for which the GI50 in the experiment with SF-268, in the experiment with OVCAR-8, in the experiment on SR, in the experiment with LOX IMVI, in the experiment with OVCAR-4 and with IGROV-1 was > 100 µM (inactive) each time. Also, the GI50 with OVCAR-5, with HOP-62, in the experiment with OVCAR-3, with UACC-257, in the experiment on M14 and with A498 was > 100 µM (inactive) throughout. Further, the GI50 in the experiment on SF-295 was > 100 µM (inactive); in the experiment on HCT-15, greater than 100 µM; in the experiment with ACHN, > 100 µM (inactive); in the experiment with UO-31 it was > 100 µM (inactive); with HT-29, > 100 µM (inactive); in the experiment with SF-539 it was > 100 µM (inactive). For the same compound, the GI50 in the experiment on SN12C is > 100 µM (inactive).

Take `CCn1cc(C(=O)O)c(=O)c2cc(F)c(N3CCNCC3)nc21` [ENOXACIN]: the GI50 in the experiment on SF-268 was > 100 µM (inactive); in the experiment with OVCAR-8, > 100 µM (inactive); in the experiment with SR, 77.8 µM (inactive); in the experiment with LOX IMVI, 86.3 µM (inactive); in the experiment on OVCAR-4 it was > 100 µM (inactive); with IGROV-1 it was > 100 µM (inactive). Also, the GI50 with OVCAR-5, in the experiment with HOP-62, in the experiment with OVCAR-3, in the experiment on UACC-257, in the experiment with M14 and in the experiment with A498 was > 100 µM (inactive) each time. Also, the GI50 in the experiment on SF-295 was > 100 µM (inactive); in the experiment with HCT-15, greater than 100 µM; with ACHN it was > 100 µM (inactive); in the experiment with UO-31, > 100 µM (inactive); with HT-29, > 100 µM (inactive); with SF-539, > 100 µM (inactive). For the same compound, in the experiment with SN12C, the GI50 was 68.7 µM (inactive).
